# ChEMBL document CHEMBL2086269, “Identification of new snake venom metalloproteinase inhibitors using compound screening and rational Peptide design” (ACS Med Chem Lett, 2012)
# Where a name gives a salt, the structure may show the parent alone. The source made the active and inactive calls. The rule behind the calls is not given here. Residues, ends and D or L forms follow the SMILES beside them. *: point of attachment. NHOH = ON*
# Assays:
# [1] = target: T1, Snake venom metalloproteinase BaP1 (Bothrops asper, UniProt P83512); experiment: Inhibition of snake venom BaP1 using Abz-Ala-Gly-Leu-Ala-Nba as substrate incubated for 30 mins prior to substrate addition by fluorescence spectrophotometry
# T1 sequence (P83512 whole entry): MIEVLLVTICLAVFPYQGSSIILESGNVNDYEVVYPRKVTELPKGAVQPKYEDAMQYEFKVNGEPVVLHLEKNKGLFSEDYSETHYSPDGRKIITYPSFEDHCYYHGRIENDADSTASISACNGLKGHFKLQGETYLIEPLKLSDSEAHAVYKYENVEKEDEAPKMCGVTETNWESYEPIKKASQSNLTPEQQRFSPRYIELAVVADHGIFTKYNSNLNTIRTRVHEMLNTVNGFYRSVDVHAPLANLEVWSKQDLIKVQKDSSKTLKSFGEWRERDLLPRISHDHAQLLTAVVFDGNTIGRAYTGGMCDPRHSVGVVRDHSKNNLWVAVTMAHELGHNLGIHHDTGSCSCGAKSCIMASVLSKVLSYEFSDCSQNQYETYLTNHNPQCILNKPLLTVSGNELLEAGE
# [2] = Displacement of PAC1 from Zn2+ incubated for 30 mins prior to PAC1 addition measured after 30 mins by spectrophotometry
Structure (SMILES),IC50 [1] [µM],Activity [2]
CC(C)C[C@H](NC(=O)[C@@H](N)Cc1c[nH]c2ccccc12)C(=O)N[C@@H](CCCNC(=N)N)C(=O)NO,217,–
CC(C)C[C@H](NC(=O)[C@@H](N)Cc1ccccc1)C(=O)N[C@@H](CCCNC(=N)N)C(=O)NO (H-Phe-Leu-Arg-{NHOH}),4.6,Active
CC(C)C[C@H](NC(=O)[C@@H](N)Cc1ccccc1)C(=O)N[C@@H](Cc1cnc[nH]1)C(=O)NO (H-Phe-Leu-His-{NHOH}),108,–
CC(C)C[C@H](NC(=O)[C@@H](N)Cc1ccccc1)C(=O)N[C@@H](Cc1ccccc1)C(N)=O (H-Phe-Leu-Phe-NH2),825,–
CC(C)C[C@H](NC(=O)[C@@H](N)Cc1ccccc1)C(=O)N[C@@H](Cc1ccccc1)C(=O)NO (H-Phe-Leu-Phe-{NHOH}),0.5,Active
CC(C)C[C@H](NC(=O)[C@@H](N)Cc1ccccc1)C(=O)N[C@@H](Cc1ccc(O)cc1)C(N)=O (H-Phe-Leu-Tyr-NH2),> 1000,–
CC(C)C[C@H](NC(=O)[C@@H](N)Cc1ccccc1)C(=O)N[C@@H](Cc1ccc(O)cc1)C(=O)NO (H-Phe-Leu-Tyr-{NHOH}),30.9,–
CC(C)C[C@H](NC(=O)[C@@H](N)Cc1c[nH]c2ccccc12)C(=O)N[C@@H](Cc1cnc[nH]1)C(=O)NO (H-Trp-Leu-His-{NHOH}),58.4,–
CC(C)C[C@H](NC(=O)[C@@H](N)Cc1c[nH]c2ccccc12)C(=O)N[C@@H](Cc1ccccc1)C(N)=O (H-Trp-Leu-Phe-NH2),> 1000,–
CC(C)C[C@H](NC(=O)[C@@H](N)Cc1c[nH]c2ccccc12)C(=O)N[C@@H](Cc1ccccc1)C(=O)NO (H-Trp-Leu-Phe-{NHOH}),34.2,–
CC(C)C[C@H](NC(=O)[C@@H](N)Cc1c[nH]c2ccccc12)C(=O)N[C@@H](Cc1ccc(O)cc1)C(N)=O (H-Trp-Leu-Tyr-NH2),402,–
CC(C)C[C@H](NC(=O)[C@@H](N)Cc1c[nH]c2ccccc12)C(=O)N[C@@H](Cc1ccc(O)cc1)C(=O)NO (H-Trp-Leu-Tyr-{NHOH}),46.2,–
CNC(=O)[C@H](Cc1ccccc1)NC(=O)[C@H](CC(C)C)[C@H](CSc1cccs1)C(=O)NO [BATIMASTAT],1.2,–
COc1ccc2c3c([nH]c2c1)C(C)=NCC3 [HARMALINE HYDROCHLORIDE DIHYDRATE],70.4,–
NC(=O)N/N=C/c1ccc([N+](=O)[O-])o1 [NITROFURAZONE],88.1,–
COc1cc2c(cc1OC)-c1cc3ccc(OC)c(OC)c3c[n+]1CC2 [PALMATINE CHLORIDE],93.3,–
Nc1ccc(/N=N/c2ccccc2)c(N)n1 [PHENAZOPYRIDINE HYDROCHLORIDE],54.3,–
